Test [1] concerns Jurkat HIV-luciferase clones. Kind of test: Jurkat latency reversal assay. It is filed as cell-based. The settings on record: Homo sapiens, 48 h; Jurkat latency reversal assay potency; read-out: Jurkat pEC50 (converted). In short, it runs like this:
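EC50 and maximal activation versus vehicle were derived by four-parameter logistic regression of luciferase luminescence. The luminescence was induced in pooled Jurkat HIV-luciferase clones C16, 115 and N6 (5,000 cells/well) after 48 h at 37° C with duplicate 14-point, 3-fold dilutions starting at 10 μM (0.5% DMSO).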

Test [2] deals with cIAP1-BIR3 (Homo sapiens (Human), UniProt Q13490). Kind of test: BIR binding assay (FRET competition), cIAP1 BIR3. Particulars: for cIAP1 BIR3 vs BIR2 separation window: fold separation (FS) for cIAP1. In short, it runs like this:
(§1)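 Compounds tested as 15-point, 3-fold series displacing 200 nM AlexaFluor647-labelled SMAC peptide from His-tagged BIR domain (cIAP1-BIR3 50 nM; cIAP1-BIR2 and cIAP2-BIR2 325 nM; XIAP-BIR3 100 nM), pH 7.4, 60 min. Eu-W1024 (2 nM) added 30 min; emission ratio fitted for IC50.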

For test [3], the target named is cIAP1-BIR2 (Homo sapiens (Human), UniProt Q13490). The test can be described thus: BIR binding assay (FRET competition), cIAP1 BIR2. In short, it runs like this: as §1
Sequence of cIAP1-BIR2 (Q13490 173-257): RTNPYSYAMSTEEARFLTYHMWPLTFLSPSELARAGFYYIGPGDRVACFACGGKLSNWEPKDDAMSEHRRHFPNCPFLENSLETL
Test [4] deals with cIAP2-BIR3 (Homo sapiens (Human), UniProt Q13489). The test can be described thus: BIR binding assay (FRET competition), cIAP2 BIR3. The settings on record: for cIAP2 BIR3 vs BIR2 separation window: fold separation (FS) for cIAP2.
Sequence of cIAP2-BIR3 (Q13489 238-349): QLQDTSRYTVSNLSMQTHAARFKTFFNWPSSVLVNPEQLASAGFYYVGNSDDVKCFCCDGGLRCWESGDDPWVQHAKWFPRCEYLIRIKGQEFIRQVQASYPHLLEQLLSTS
In test [5] the target is cIAP2-BIR2 (Homo sapiens (Human), UniProt Q13489). Kind of test: BIR binding assay (FRET competition), cIAP2 BIR2. In short, it runs like this: as §1
Sequence of cIAP2-BIR2 (Q13489 158-242): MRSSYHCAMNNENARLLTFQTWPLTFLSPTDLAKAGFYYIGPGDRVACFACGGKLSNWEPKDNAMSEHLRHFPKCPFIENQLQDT
Test [6] has as its target XIAP-BIR3 (Homo sapiens (Human), UniProt P98170). The test can be described thus: BIR binding assay (FRET competition), XIAP BIR3. Particulars: for XIAP BIR3 vs BIR2 separation window: fold separation (FS) for XIAP. Put shortly:
as §1

Test [7] deals with XIAP-BIR2 (Homo sapiens (Human), UniProt P98170). Kind of test: BIR binding assay (FRET competition), XIAP BIR2. The settings on record: FRET competition binding; read-out: XIAP BIR2 (pIC50) (converted). Put shortly: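 Competitive TR-FRET used His-tagged XIAP-BIR2 (200 nM) and 200 nM AlexaFluor647-labelled AVPIAQKSE SMAC peptide in HEPES buffer pH 7.4 with CHAPS, glycerol and DTT, incubated 60 min before 30 min with 2 nM Eu-W1024. The 615/665 nm ratio from a 15-point, 3-fold series was fit with a four-parameter model for IC50/pIC50.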
Sequence of XIAP-BIR2 (P98170 124-240): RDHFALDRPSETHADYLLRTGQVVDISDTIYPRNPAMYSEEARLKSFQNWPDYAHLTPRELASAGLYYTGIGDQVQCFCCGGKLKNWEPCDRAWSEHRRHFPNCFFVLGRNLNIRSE

Each structure is given as a SMILES string.

These results are taken from patent US20250326771A1, “PIPERAZINE DERIVATIVES USEFUL IN HIV THERAPY” (VIIV HEALTHCARE COMPANY, priority 2022, published 2025).

Sequence of XIAP-BIR3 (P98170 241-356): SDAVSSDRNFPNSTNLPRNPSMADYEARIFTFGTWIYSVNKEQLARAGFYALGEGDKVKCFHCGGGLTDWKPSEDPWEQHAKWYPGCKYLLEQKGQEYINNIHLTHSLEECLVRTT
Sequence of cIAP1-BIR3 (Q13490 253-363): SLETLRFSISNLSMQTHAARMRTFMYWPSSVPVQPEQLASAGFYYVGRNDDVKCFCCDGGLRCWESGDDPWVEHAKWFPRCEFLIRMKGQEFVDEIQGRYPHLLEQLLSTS

As to `C[C@@H]1CN(CC(=O)N2CC(C)(C)c3[nH]c(=O)c(Cc4ccc(F)cc4)cc32)[C@@H](CN2CCN(C(=O)COCCOCC(=O)N3CCN(C[C@H]4CN[C@H](C)CN4CC(=O)N4CC(C)(C)c5[nH]c(=O)c(Cc6ccc(F)cc6)cc54)[C@H](C)C3)C[C@H]2C)CN1` [Example 5, 1,1′-(2,2′-((3R,3′R,6R,6′R)-(((2R,2′R)-(2,2′-(ethane-1,2-diylbis(oxy))bis(acetyl))bis(2-methylpiperazine-4,1-diyl))bis(methylene))bis(3-methylpiperazine-6,1-diyl))bis(acetyl))bis(6-(4-fluorobenzyl)-3,3-dimethyl-1,2,3,4-tetrahydro-5H-pyrrolo[3,2-b]pyridin-5-one)], the EC50 in test [1] was 63.1 to 316 nM. Besides, the IC50 was 31.6 to 501 nM in test [2]; 3160 to 10000 nM in test [3]; 15.8 to 31.6 nM in test [4]; 1000 to 3160 nM in test [5]; 31.6 to 501 nM in test [6]; 10000 to 51300 nM in test [7]. For the same compound, the “cIAP1 BIR3 vs BIR2 separation window” value in test [2] was “++ (1,000>FS>100)”. Besides, the “cIAP2 BIR3 vs BIR2 separation window” value in test [4] is listed as “++ (1,000>FS>100)”. Further, in test [6], the “XIAP BIR3 vs BIR2 separation window” value is “++++ (FS>10,000)”.

As for `C[C@@H]1CN(CC(=O)N2CC(C)(C)c3[nH]c(=O)c(Cc4ccc(F)cc4)cc32)[C@@H](CN2CCO[C@H](COc3ccccc3OC[C@@H]3CN(C[C@H]4CN[C@H](C)CN4CC(=O)N4CC(C)(C)c5[nH]c(=O)c(Cc6ccc(F)cc6)cc54)CCO3)C2)CN1` [Example 71, 1,1′-(2,2′-((3R,3′R,6R,6′R)-(((2S,2'S)-((1,2-phenylenebis(oxy))bis(methylene))bis(morpholine-2,4-diyl))bis(methylene))bis(3-methylpiperazine-6,1-diyl))bis(acetyl))bis(6-(4-fluorobenzyl)-3,3-dimethyl-1,2,3,4-tetrahydro-5H-pyrrolo[3,2-b]pyridin-5-one)], in test [1], the EC50 is 63.1 to 316 nM. Also, the IC50 in test [2] is 7.94 to 15.8 nM; in test [3], 1000 to 3160 nM; in test [4], 7.94 to 15.8 nM; in test [5], 1000 to 3160 nM; in test [6], 15.8 to 31.6 nM; in test [7], 10000 to 51300 nM. The “cIAP1 BIR3 vs BIR2 separation window” value in test [2] was “++ (1,000>FS>100)”. For the same compound, the “cIAP2 BIR3 vs BIR2 separation window” value in test [4] is recorded as “+++ (10,000>FS>1,000)”. Also, the “XIAP BIR3 vs BIR2 separation window” value in test [6] is given as “++++ (FS>10,000)”.

Take `C[C@@H]1CN(CC(=O)N2CC(C)(C)c3[nH]c(=O)c(Cc4ccc(F)cc4)cc32)[C@@H](CN2CCO[C@H](C(=O)NCCCN3CCN(CCCNC(=O)[C@@H]4CN(C[C@H]5CN[C@H](C)CN5CC(=O)N5CC(C)(C)c6[nH]c(=O)c(Cc7ccc(F)cc7)cc65)CCO4)CC3)C2)CN1` [Example 123, (2S,2'S)-N,N′-(piperazine-1,4-diylbis(propane-3,1-diyl))bis(4-(((2R,5R)-1-(2-(6-(4-fluorobenzyl)-3,3-dimethyl-5-oxo-2,3,4,5-tetrahydro-1H-pyrrolo[3,2-b]pyridin-1-yl)-2-oxoethyl)-5-methylpiperazin-2-yl)methyl)morpholine-2-carboxamide)]: in test [1], the EC50 was 316 to 3310 nM. Also, the IC50 in test [2] was 7.94 to 15.8 nM; in test [3], 3160 to 10000 nM; in test [4], 7.94 to 15.8 nM; in test [5], 3160 to 10000 nM; in test [6] it was 7.94 to 15.8 nM; in test [7] it was 10000 to 51300 nM. For the same compound, in test [2], the “cIAP1 BIR3 vs BIR2 separation window” value is given as “+++ (10,000>FS>1,000)”. Further, the “cIAP2 BIR3 vs BIR2 separation window” value in test [4] is “+++ (10,000>FS>1,000)”. For the same compound, the “XIAP BIR3 vs BIR2 separation window” value in test [6] was “++++ (FS>10,000)”.
